Laboratory results taken from patent publication US20030032676A1, “Drugs for treatment of cerebral injury and methods of use thereof” (priority 2001, published 2003).

Columns and labels:
reversible MCAo = test: Infarct volume by TTC staining after reversible MCAo (two hours of MCAo, then reperfusion); assay type: in vivo, rat; conditions: for Mean volume of the infarct: ±SEM, p<0.05
permanent MCAo = test: Infarct volume by TTC staining after permanent MCAo; assay type: in vivo, rat; conditions: 20 mg/kg, maintained by IP injections every 12 h
EAA release = test: Glutamate (EAA) release measured by microdialysis during and after ischemia (rMCAo); assay type: in vivo, rat; conditions: 5 mg/kg i.v. before rMCAO
nitrotyrosine = test: Nitrotyrosine production after rMCAo, Western blot of cerebral cortex extracts; assay type: in vivo, rat; conditions: 5 mg/kg; 68 kDa protein at 24 hours after rMCAo; P<0.05 compared to vehicle
lipid peroxidation = test: Lipid peroxidation in rat synaptosomal preparation (TBA-reactive substances); assay type: biochemical; conditions: initiated by 2.5 μM Fe2SO4 and 500 μM ascorbic acid; rat synaptosomes
Protocol: Lipid peroxides in sedimented synaptosomal membranes were analyzed by 2-thiobarbituric acid (TBA) with the TBA-reactive substances determined spectrophotometrically (Ohkawa et al., 1979). *P<0.05

recombinant nNOS = recombinant nNOS (Homo sapiens, UniProt P29475); conditions: recombinant nNOS and calcium dependent NOS activity in brain homogenates; from Osuka et al., 2001; cited from earlier work
recombinant nNOS, sequence (P29475 whole entry, species assumed): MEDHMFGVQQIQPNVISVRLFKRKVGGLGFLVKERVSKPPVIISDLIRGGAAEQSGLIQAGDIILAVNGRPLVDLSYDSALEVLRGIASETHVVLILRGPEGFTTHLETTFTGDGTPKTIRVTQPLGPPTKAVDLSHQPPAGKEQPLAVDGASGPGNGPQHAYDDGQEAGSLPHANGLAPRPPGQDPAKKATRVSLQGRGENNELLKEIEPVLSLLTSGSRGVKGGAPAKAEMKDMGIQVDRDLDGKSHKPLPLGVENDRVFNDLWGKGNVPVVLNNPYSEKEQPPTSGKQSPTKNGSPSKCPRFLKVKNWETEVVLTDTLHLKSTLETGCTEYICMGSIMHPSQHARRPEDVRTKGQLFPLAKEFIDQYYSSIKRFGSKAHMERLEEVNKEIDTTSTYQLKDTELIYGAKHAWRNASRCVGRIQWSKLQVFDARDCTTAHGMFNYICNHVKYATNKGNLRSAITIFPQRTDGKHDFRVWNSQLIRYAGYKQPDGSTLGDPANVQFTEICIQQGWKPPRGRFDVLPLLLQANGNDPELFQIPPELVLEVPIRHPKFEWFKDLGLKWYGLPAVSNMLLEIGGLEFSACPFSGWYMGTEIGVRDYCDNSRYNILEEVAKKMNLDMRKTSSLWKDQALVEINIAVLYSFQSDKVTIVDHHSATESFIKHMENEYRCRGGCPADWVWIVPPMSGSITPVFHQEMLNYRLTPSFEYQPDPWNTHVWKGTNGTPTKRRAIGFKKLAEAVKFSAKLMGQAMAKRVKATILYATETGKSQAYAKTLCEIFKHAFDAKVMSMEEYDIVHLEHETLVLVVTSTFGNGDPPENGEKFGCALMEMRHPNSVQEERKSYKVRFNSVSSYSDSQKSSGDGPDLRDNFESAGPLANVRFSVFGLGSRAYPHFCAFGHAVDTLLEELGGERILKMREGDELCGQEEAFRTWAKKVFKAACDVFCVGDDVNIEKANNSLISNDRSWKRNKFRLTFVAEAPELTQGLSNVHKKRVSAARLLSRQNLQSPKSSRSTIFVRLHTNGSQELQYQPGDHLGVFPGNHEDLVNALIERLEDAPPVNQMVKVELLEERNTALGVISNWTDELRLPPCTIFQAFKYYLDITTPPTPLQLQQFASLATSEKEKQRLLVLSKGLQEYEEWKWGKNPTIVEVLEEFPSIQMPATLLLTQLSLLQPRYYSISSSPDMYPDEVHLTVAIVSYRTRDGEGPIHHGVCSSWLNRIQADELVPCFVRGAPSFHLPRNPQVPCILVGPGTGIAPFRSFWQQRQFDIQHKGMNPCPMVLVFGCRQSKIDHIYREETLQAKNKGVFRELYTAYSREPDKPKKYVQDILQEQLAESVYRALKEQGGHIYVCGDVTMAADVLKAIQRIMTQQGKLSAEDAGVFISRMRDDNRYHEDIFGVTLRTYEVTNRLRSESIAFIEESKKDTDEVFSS

[1] = test system: volume-regulated anion channels (VRACs); test: Blockade of volume-regulated anion channels in vitro

With CCC(=C(c1ccccc1)c1ccc(OCCN(C)C)cc1)c1ccccc1 (stereo in doubt) [tamoxifen, (Z)-2-[4-(1,2-diphenyl-1-butenyl)phenoxy]-N,N-dimethylethanamine] the Infarct size (reversible MCAo; tamoxifen at two and four hours after the infarct, reperfusion) was “essentially identical to the mean for untreated control animals”, the “Mean volume of the infarct” value (reversible MCAo; tamoxifen given 1 hour after reperfusing after two hours of MCAo, TTC staining 72 h) was 33±13 mm^3 and the “Mean volume of the infarct” value (reversible MCAo; tamoxifen pretreatment, TTC staining 72 h after MCAo) was 41±21 mm^3. The Infarct volume (permanent MCAo) was “reduces infarct volumes”, the Contralateral glutamate levels (EAA release) was “no effect” and the “EAA (glutamate) release during ischemia” value (EAA release) was “reduces EAA release”. For the same molecule, the “Nitrotyrosine levels after rMCAo” value (nitrotyrosine) was “reduces nitrotyrosine levels”, the Lipid peroxidation (lipid peroxidation) was “inhibits lipid peroxidation” and the nNOS activity (recombinant nNOS) was “inhibits nNOS”. The VRAC blockade [1] was “potently blocks VRACs”.
